Measured values published in patent US7582638B2, “Pyrazole-isoquinoline urea derivatives as p38 kinase inhibitors” (Eli Lilly and Company, priority 2005, dated 2009).

Experiments:
Oral exposure = type: in vivo; conditions: rat, 1 mg/kg, male Fischer 344 rats, fasted, gavage, suspension 1 mg/mL at 1 mL/kg, plasma
Protocol: Compounds are screened for oral exposure in male Fischer 344 rats. Animals are fasted overnight and administered test compounds prepared as suspensions in sodium carboxymethylcellulose (1% w/v) containing Tween 80 (0.25% v/v) and antifoam (0.1% w/v). Dose suspensions are prepared at 1 mg/mL and administered at 1 mL/kg by gavage. Blood samples are taken between 0.5 h and 7 h after dose administration and plasma are prepared by centrifugation. Plasma samples are analyzed using online solid phase extraction and LC/MS/MS.

p-MAPKAPK2 = experiment: Anisomycin-stimulated mice ex-vivo phospho-MAPKAPK2 inhibition assay by flow cytometry; type: in vivo; conditions: female Balb/c mice, po, blood after 2 hours, ex vivo anisomycin 10 μg/ml, CD11b+Ly6G- cells
Protocol: Female Balb/c mice with 8-10 week-old age are purchased from Taconic Inc. and dosed po with 0.2 mL volume of compounds at the concentrations of 30, 10, 3, 1 mg/kg. Blood is obtained from cardiac puncture after 2 hours or other indicated time periods and collected in EDTA-containing tubes. 100 μL of blood is incubated at 37° C. for 10 minutes. Whole blood is then mixed with FITC-conjugated rat anti-mouse Ly-6G mAb (1:250) and APC-conjugated rat anti-mouse CD11b mAb (1:100) and stimulated with 10 μg/ml anisomycin. Both cell surface antigen staining and anisomycin stimulation is conducted at 37° C. for 15 min and followed up with Lyse/Fix buffer (BD Biosciences, Cat# 558049) for 10 min at room temperature. Lysed blood samples are spun down at 600×g for 8 minutes at room temperature with additional wash once by 4 mL PBS. 200 μL of diluted anti-Phospho-MAPKAPK-2 (Thr334) antibody (1:100 dilution) (Cell Signaling, Cat# 3041) and mouse BD Fc Block (1:100 dilution) (BD Biosciences, 553141) in permeabilization Medium B (Caltag, Cat# GAS002S-5) are added into blood cells and incubate at room temperature for 30 min. After the incubation, 3 mL of stain/wash buffer is added and cells are spanned down as described above with additional wash with 3 ml stain/wash buffer. […] Mean fluorescence of phosphono-MapKap-K2 staining is measured on gated CD11b+Ly6G-cells. […]

Cmax (Oral exposure): 9390 ng/mL
AUC(0-t) (Oral exposure; read-out: AUC (0-7 h)): 36800 ng·h/mL
SMILES: CS(=O)(=O)O.Cc1ccc(-n2nc(C3(C)CC3)cc2NC(=O)Nc2cnc(OC3CCN(C(=O)C4(C)CC4)CC3)c3ccccc23)cc1 [Example 12, 1-{1-[1-(1-Methyl-cyclopropanecarbonyl)-piperidin-4-yloxy]-isoquinolin-4-yl}-3-[5-(1-methyl-cyclopropyl)-2-p-tolyl-2H-pyrazol-3-yl]-urea mesylate]
TMED50, inhibition of p-MAPKAPK2 synthesis (p-MAPKAPK2): 2.20 mg/kg
